Test results: ChEMBL document CHEMBL1201862, “PubChem BioAssay data set” (2004)
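How tested: cells in 96-well plates exposed to compound for 48 hours at five concentrations. At the GI50, growth is halved.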 The source made the active and inactive calls. No stated cut-off is given here; in the data, active = GI50 up to about 1.1 µM and inactive = higher.

Assays:
Test in all cases: inhibition of tumour cell growth, NCI panel, 48 h
[1] = system: SNB-75
[2] = system: RPMI-8226
[3] = system: MCF7
[4] = system: NCI-H23
[5] = system: NCI-H522
[6] = system: PC-3
[7] = system: DU-145
[8] = system: SK-MEL-28
[9] = system: U-251
[10] = system: NCI/ADR-RES
[11] = system: IGROV-1
[12] = system: MDA-MB-435
[13] = system: MOLT-4
[14] = system: SK-OV-3
[15] = system: OVCAR-4
[16] = system: Hs-578T
[17] = system: UO-31
[18] = system: SK-MEL-5
[19] = system: SR
[20] = system: M14
[21] = system: SF-295
[22] = system: CCRF-CEM
[23] = system: SNB-19
[24] = system: SW-620
[25] = system: HCT-116
[26] = system: HOP-92
[27] = system: OVCAR-5
[28] = system: OVCAR-8
[29] = system: Malme-3M
[30] = system: RXF 393
[31] = system: SF-539
[32] = system: UACC-257
[33] = system: COLO 205
[34] = system: SK-MEL-2
[35] = system: A498
[36] = system: SN12C
[37] = system: KM12
[38] = system: MDA-MB-231
[39] = system: CAKI-1
[40] = system: TK-10
[41] = system: LOX IMVI
[42] = system: HL-60
[43] = system: NCI-H226
[44] = system: HT-29
[45] = system: A549
[46] = system: 786-0
[47] = system: EKVX
[48] = system: T47D
[49] = system: NCI-H460
[50] = system: SF-268
[51] = system: HCT-15
[52] = system: ACHN
[53] = system: K562
[54] = system: HCC 2998
[55] = system: OVCAR-3
[56] = system: HOP-62
[57] = system: UACC-62
[58] = system: MDA-N

Measured: GI50

CC1=CC[C@@]2(C)CC[C@](O)(C(C)C)C2C(OC(=O)c2ccccc2)C1 (some centres not stated)
18.7 µM: [51]
inactive: [1] 17.5 µM | [2] 16 µM | [3] 17.9 µM | [4] 18.5 µM | [5] 16.5 µM | [6] 18.7 µM | [7] 18.1 µM | [8] 24 µM | [9] 27.8 µM | [10] 19.7 µM | [11] 15.6 µM | [12] 36.1 µM | [13] 17.1 µM | [14] 14.3 µM | [15] 25 µM | [16] 21.2 µM | [17] 17.3 µM | [18] 18.3 µM | [19] 31.7 µM | [20] 18.7 µM | [21] 15.6 µM | [22] 23 µM | [23] 20.7 µM | [24] 22.3 µM | [25] 17.3 µM | [26] 15.1 µM | [27] 16 µM | [28] 19.4 µM | [29] 21 µM | [30] 12.7 µM | [31] 19.8 µM | [32] 18.9 µM | [33] 22.1 µM | [34] 14.4 µM | [35] 24.4 µM | [36] 23.6 µM | [37] 18.4 µM | [38] 17.9 µM | [39] 21.1 µM | [40] 18.3 µM | [41] 19.4 µM | [42] 28.9 µM | [43] 23.8 µM | [44] 16.7 µM | [45] 15.6 µM | [46] 18.5 µM | [47] 15.5 µM | [48] 20.1 µM | [49] 21.6 µM | [50] 23.2 µM | [52] 17.8 µM | [53] 19.5 µM | [54] 11.8 µM | [55] 17.5 µM | [56] 18 µM

CC(C)(C)/N=c1/n(C(C)(C)C)oc(=O)n1-c1ccccc1
inactive: [1] 35.6 µM | [2] > 50 µM | [3] > 50 µM | [4] > 50 µM | [5] > 50 µM | [6] > 50 µM | [7] > 50 µM | [8] > 50 µM | [9] > 50 µM | [10] > 50 µM | [11] > 50 µM | [12] > 50 µM | [13] > 50 µM | [14] > 50 µM | [15] > 50 µM | [16] > 50 µM | [17] > 50 µM | [18] > 50 µM | [19] > 50 µM | [20] > 50 µM | [21] > 50 µM | [22] > 50 µM | [23] > 50 µM | [24] > 50 µM | [25] > 50 µM | [26] > 50 µM | [27] > 50 µM | [28] > 50 µM | [29] > 50 µM | [30] > 50 µM | [31] > 50 µM | [32] > 50 µM | [33] > 50 µM | [34] > 50 µM | [35] > 50 µM | [36] > 50 µM | [37] > 50 µM | [38] > 50 µM | [39] > 50 µM | [40] > 50 µM | [41] > 50 µM | [42] 41.1 µM | [43] > 50 µM | [44] > 50 µM | [45] > 50 µM | [46] > 50 µM | [47] > 50 µM | [49] > 50 µM | [50] > 50 µM | [52] > 50 µM | [53] > 50 µM | [57] > 50 µM | [58] > 50 µM | [55] > 50 µM | [56] > 50 µM
> 50 µM: [51]
